Results on one substance are retold here after patent US12492232B2, “Methods for producing proteins” (South Australian Health and Medical Research Institute …, priority 2018, dated 2025).

Entries after “also recorded” stand apart in the source; their conditions may differ.

In one assay the test system is CHO cells. The assay can be described thus: Growth of transfected CHO cells in medium with 10%, 1%, 0.5% or 0% FBS (cell counts over 7 days). Format: cell-based. The procedure:
CHO cells were seeded into 24-well plates at 5,000 cells/well. […] 24 h after transfection, cells were transferred to medium containing 10%, 1%, 0.5% or 0% FBS as indicated. Every 24 h for 7 days, cells were trypsinized (from different dishes on each occasion) and counted on a haemocytometer. Growth medium was changed every 2 days.
CHO cells were seeded into 24-well plates at 5,000 cells/well. […] 24 h after transfection, cells were transferred to media (Ham's F12 from Life Technologies, Cat. No. 11765054) containing 10%, 1%, 0.5% or 0% foetal bovine serum, as indicated. Cells were trypsinized and counted on a haemocytometer every 24 h for 7 days. Growth medium was changed every 2 days.

In a further assay the test system is TSC1/TSC2. Put plainly: GAP assay: TSC1/TSC2-promoted hydrolysis of GTP bound to recombinant GST-Rheb. Format: biochemical. Conditions: FLAG-TSC1, FLAG-TSC2, [α-32P]GTP, n=3. An excerpt:
FIGS. 1A-1B: Recombinant GST-Rheb proteins were subjected to GAP assay in the presence of FLAG-TSC1, FLAG-TSC2 and [α-^32P] GTP. GST-Rheb bound to GDP or GTP was pulled down using glutathione beads and the nucleotides were then separated by thin-layer chromatography and visualized by phosphorimager. The positions of GDP and GTP are shown (FIG. 1A). […] FIGS. 1C-1D: CHO cells were co-transfected using Lipofectamine 3000 with vectors encoding wildtype (WT) Rheb or the indicated mutants and TSC1/2 as indicated. 36 h after transfection, cells were transferred to Ham's F12 media lacking FBS for 16 h. Cells were the transferred to Dulbecco's phosphate-buffered saline (D-PBS, which lacks amino acids) for 1 h before cell lysates were harvested for SDS-PAGE and Western Blotting analysis using the indicated antibodies. […] This effect is consistent with lack of sensitivity of the mutant Rhebs to TSC1/TSC2. Thus the Rheb mutants S21L, T23M, G29S, Y35N and E40K promote mTORC1 signalling in the absence of upstream activation due to insensitivity to the GAP activity of the TSC complex.
A) Recombinant GST-Rheb proteins were subjected to GTPase assays in the presence of FLAG-TSC1, FLAG-TSC2 and [α-^32P]GTP. Nucleotide-bound GST-Rheb was purified from the reaction mixture using 20 μl glutathione bead slurry. Radioactive GDP and GTP were separated by thin-layer chromatography and visualized by phosphorimager.

Take “Rheb-T23M: human Rheb protein with a methionine variant at residue 23 (T23M), SEQ ID NO. 3”: the “cell growth in serum-free medium” value in the assay on CHO cells (0% FBS) is reported as “allows CHO cells to grow efficiently in serum-free medium”. For the same substance, the “cell growth in 0.5% FBS” value in the assay on CHO cells (0.5% FBS) was “significant growth advantage over the other Rheb mutants; also recorded: substantially greater proliferation”. Moreover, in the assay with CHO cells (10% or 1% FBS), the “cell growth in medium with 10% and 1% FBS” value is on record as “no effect on cell growth”. In addition, in the assay with TSC1/TSC2, the “hydrolysis of GTP bound to Rheb promoted by TSC1/TSC2” value is reported as “completely unable to promote hydrolysis of GTP; also recorded: did not promote hydrolysis of GTP”.
